This note sets out measurements from US7601746B2 (Shionogi & Co., Ltd., priority 2003, dated 2009).

Usually EC50 stands for the midpoint of the concentration-response curve.

For the first experiment, the target named is T1, human TPO receptor (hTPOR) (Homo sapiens, UniProt P40238).
T1 construct: expressed in transfected cells; host or cells: BaF-B03 (murine IL-3 dependent cell line)
T1 sequence (P40238 26-635): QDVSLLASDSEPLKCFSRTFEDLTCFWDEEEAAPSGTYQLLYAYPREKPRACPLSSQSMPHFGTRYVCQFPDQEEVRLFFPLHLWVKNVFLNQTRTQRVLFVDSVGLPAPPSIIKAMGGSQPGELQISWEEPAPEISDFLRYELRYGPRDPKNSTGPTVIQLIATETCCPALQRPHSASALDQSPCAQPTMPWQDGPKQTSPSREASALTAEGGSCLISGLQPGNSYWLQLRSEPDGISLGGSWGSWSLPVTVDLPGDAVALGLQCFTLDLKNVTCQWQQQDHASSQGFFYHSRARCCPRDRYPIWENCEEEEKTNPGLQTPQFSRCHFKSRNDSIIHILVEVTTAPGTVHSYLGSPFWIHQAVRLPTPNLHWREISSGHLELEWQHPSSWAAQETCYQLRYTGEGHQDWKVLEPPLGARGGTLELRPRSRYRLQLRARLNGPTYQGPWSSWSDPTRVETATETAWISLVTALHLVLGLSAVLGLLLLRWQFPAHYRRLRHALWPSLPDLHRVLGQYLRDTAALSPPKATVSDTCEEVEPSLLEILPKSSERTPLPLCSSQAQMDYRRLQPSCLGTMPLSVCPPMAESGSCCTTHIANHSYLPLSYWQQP
The experiment can be described thus: Thrombopoietic activity: proliferation of TPO dependent BaF/hTPOR cells (WST-1, absorbance at 450 nm). Format: cell-based. The conditions noted are these: 20 h + 4 h WST-1, ED50 = half concentration of the concentration showing the maximum thrombopoietic activity, Table 1. Summed up:
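Proliferation read-out: WST-1 absorbance at 450 nm after 20 h compound exposure plus 4 h reagent, using IL-3-deprived BaF/hTPOR cells (5×10^4 per well) dependent on human TPO receptor signalling. ED50 defined as half the concentration producing maximal activity.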
A general note: Tetrazolium dyes change colour on reduction, which living cells bring about.
Turning to `CCCCOC(CC)c1cccc(-c2csc(NC(=O)c3cc(F)c(/C=C(\C)C(=O)O)c(F)c3)n2)c1OC` (centres unmarked) [Compound B418, (E)-3-(4-{4-[3-(1-butyloxypropyl)-2-methyloxyphenyl]thiazol-2-ylcarbamoyl}-2,6-difluorophenyl)-2-methylacrylic acid], the EC50 was determined as 6.3 nM.
Turning to `CCCCCC(OC)c1cccc(-c2csc(NC(=O)c3cc(Cl)c(C=C(C)C(=O)O)c(Cl)c3)n2)c1F` (centres unmarked) [Compound B58, 3-(2,6-dichloro-4-{4-[2-fluoro-3-(1-methyloxyhexyl)phenyl]thiazol-2-ylcarbamoyl}phenyl)-2-methylacrylic acid], the EC50 is 1.5 nM.
Still for that read-out and setting: the result for `CCCCCCCCCCC(OC)c1cccc(-c2csc(NC(=O)c3cc(Cl)c(C=C(C)C(=O)O)c(Cl)c3)n2)c1F` (centres unmarked) [Compound B91, 3-(2,6-dichloro-4-{4-[2-fluoro-3-(1-methyloxyundecyl)phenyl]thiazol-2-ylcarbamoyl)phenyl]-2-methylacrylic acid] reads 1.02 nM; that for `COc1c(COCCC(C)C)cccc1-c1csc(NC(=O)c2cc(Cl)c(/C=C(\C)C(=O)O)c(Cl)c2)n1` [Compound B2028, (E)-3-(2,6-dichloro-4-{4-[2-methyloxy-3-(3-methylbutyloxymethyl)phenyl]thiazol-2-ylcarbamoyl}phenyl)-2-methylacrylic acid], 11.4 nM; that for `COc1c(CCCOCC(C)(C)C)cccc1-c1csc(NC(=O)c2cc(F)c(/C=C(\C)C(=O)O)c(F)c2)n1` [Compound B488], 15.9 nM.
On the same count and under the same terms, then `CCCCCCC(OC)c1cccc(-c2csc(NC(=O)c3cc(Cl)c(C=C(C)C(=O)O)c(Cl)c3)n2)c1F` (centres unmarked) [Compound B68, 3-(2,6-dichloro-4-{4-[2-fluoro-3-(1-methyloxyheptyl)phenyl]thiazol-2-ylcarbamoyl}phenyl)-2-methylacrylic acid], with 0.82 nM; and `CCCCCCOCCC(OC)c1cccc(-c2csc(NC(=O)c3cc(F)c(C=C(C)C(=O)O)c(F)c3)n2)c1F` (centres unmarked) [Compound B52, 3-(2,6-difluoro-4-{4-[2-fluoro-3-(3-n-hexyloxy-1-methyloxyproyl)phenyl]thiazol-2-ylcarbamoyl}phenyl)-2-methylacrylic acid], with 1.7 nM; and `CCOC(c1cccc(-c2csc(NC(=O)c3cc(F)c(C=C(C)C(=O)O)c(F)c3)n2)c1F)C1CCCCC1` (centres unmarked) [Compound B6, 3-(4-{4-[3-(1-cyclohexyl-1-ethyloxymethyl)-2-fluorophenyl]thiazol-2-ylcarbamoyl}-2,6-difluorophenyl)-2-methylacrylic acid], with 2.4 nM.
Turning to `CCCCOCc1cccc(-c2csc(NC(=O)c3cc(F)c(/C=C(\C)C(=O)O)c(F)c3)n2)c1OC` [Compound B1997, (E)-3-{4-[4-(3-butyloxymethyl-2-methyloxyphenyl)thiazol-2-ylcarbamoyl]-2,6-difluorophenyl}-2-methylacrylic acid], the EC50 came to 15.5 nM.
Still for that read-out and setting: then `CCCCCOCCCc1cccc(-c2csc(NC(=O)c3cc(F)c(C=C(C)C(=O)O)c(F)c3)n2)c1F` [Compound B45, 3-(2,6-difluoro-4-{4-[2-fluoro-3-(3-n-pentyloxypropyl)phenyl]thiazol-2-ylcarbamoyl}phenyl)-2-methylacrylic acid], with 1.36 nM; and `CC(=Cc1c(Cl)cc(C(=O)Nc2nc(-c3cccc(CCCOC(C)C)c3F)cs2)cc1Cl)C(=O)O` [Compound B94, 3-(2,6-dichloro-4-{4-[2-fluoro-3-(3-isopropyloxypropyl)phenyl]thiazol-2-ylcarbamoyl)phenyl]-2-methylacrylic acid], with 0.97 nM.
Still for that read-out and setting: the result for `CCCCCCCOc1cccc(-c2csc(NC(=O)c3cc(F)c(/C=C(\C)C(=O)O)c(F)c3)n2)c1OC` [Compound B1998, (E)-3-{2,6-difluoro-4-[4-(3-heptyloxy-2-methyloxyphenyl)thiazol-2-ylcarbamoyl]phenyl}-2-methylacrylic acid] reads 8.35 nM.
Same read-out and setting: the result for `COC(c1cccc(-c2csc(NC(=O)c3cc(F)c(C=C(C)C(=O)O)c(F)c3)n2)c1F)(C(C)C)C(C)C` [Compound B7, 3-(2,6-difluoro-4-{4-[2-fluoro-3-(2,4-dimethyl-3-methyloxy-3-pentyl)phenyl]thiazol-2-ylcarbamoyl}phenyl)-2-methylacrylic acid] reads 3.6 nM; that for `CCCCCCOCCCc1cccc(-c2csc(NC(=O)c3cc(F)c(C=C(C)C(=O)O)c(F)c3)n2)c1F` [Compound B46, 3-(2,6-difluoro-4-{4-[2-fluoro-3-(3-n-hexyloxypropyl)phenyl]thiazol-2-ylcarbamoyl}phenyl)-2-methylacrylic acid], 1.28 nM; that for `CCCOC(CCC)c1cccc(-c2csc(NC(=O)c3cc(F)c(C=C(C)C(=O)O)c(F)c3)n2)c1F` (centres unmarked) [Compound B34, 3-(2,6-difluoro-4-{4-[2-fluoro-3-(1-n-propyloxybutyl)phenyl]thiazol-2-ylcarbamoyl}phenyl)-2-methylacrylic acid], 0.99 nM.
Take `CC(=Cc1c(F)cc(C(=O)Nc2nc3c(s2)CCc2c(CCCOC(C)C)cccc2-3)cc1F)C(=O)O` [Compound A7, 3-{2,6-difluoro-4-[4,5-dihydro-6-(3-isopropyloxypropyl)naphtho[1,2-d]thiazol-2-ylcabamoyl]phenyl}-2-methylacrylic acid]: the EC50 came out at 2.26 nM.
On the same count and under the same terms, then `CCCCCCCCCC(OC)c1cccc(-c2csc(NC(=O)c3cc(F)c(C=C(C)C(=O)O)c(F)c3)n2)c1F` (centres unmarked) [Compound B9, 3-(2,6-difluoro-4-{4-[2-fluoro-3-(1-methyloxydecyl)phenyl]thiazol-2-ylcarbamoyl}phenyl)-2-methylacrylic acid], with 1.6 nM; and `CCCCCCOCCCc1cccc(-c2csc(NC(=O)c3cc(Cl)c(C=C(C)C(=O)O)c(Cl)c3)n2)c1F` [Compound B96, 3-(2,6-dichloro-4-{4-[2-fluoro-3-(3-n-hexyloxypropyl)phenyl]thiazol-2-ylcarbamoyl)phenyl]-2-methylacrylic acid], with 0.78 nM.
Same read-out and setting: the result for `CCCCCCCCC(OC)c1cccc(-c2csc(NC(=O)c3cc(Cl)c(C=C(C)C(=O)O)c(Cl)c3)n2)c1F` (centres unmarked) [Compound B72, 3-(2,6-dichloro-4-{4-[2-fluoro-3-(1-methyloxynonyl)phenyl]thiazol-2-ylcarbamoyl}phenyl)-2-methylacrylic acid] reads 0.78 nM.

Staying with this experiment, now noted: 20 h + 4 h WST-1, ED50 = half concentration of the concentration showing the maximum thrombopoietic activity, Table 2.
As to `COc1c(CCCOCC(C)C)cccc1-c1csc(NC(=O)c2cc(Cl)c(/C=C(\C)C(=O)O)c(Cl)c2)n1` [Compound B1878, (E)-3-(2,6-dichloro-4-{4-[3-(3-isobuyloxypropyl)-2-methyloxyphenyl]thiazol-2-ylcarbamoyl}phenyl)-2-methylacrylic acid], the EC50 turned out to be 21.2 nM.
Same read-out and setting: the result for `CCCCCOCCc1cccc(-c2csc(NC(=O)c3cc(F)c(/C=C(\C)C(=O)O)c(F)c3)n2)c1OC` [Compound B1924, (E)-3-(2,6-difluoro-4-{4-[2-methyloxy-3-(2-pentyloxyethyl)phenyl]thiazol-2-ylcarbamoyl)phenyl)-2-methylacrylic acid] reads 20.6 nM; that for `COc1c(OCCC2CCCCC2)cccc1-c1csc(NC(=O)c2cc(Cl)c(/C=C(\C)C(=O)O)c(Cl)c2)n1` [Compound B1918], 21 nM.
Still for that read-out and setting: then `CO/C(=C\c1c(Cl)cc(C(=O)Nc2nc(-c3cccc(COCCCC(C)C)c3OC)cs2)cc1Cl)C(=O)O` [Compound B1941], with 24.1 nM.
On the same count and under the same terms, the result for `CO/C(=C\c1c(Cl)cc(C(=O)Nc2nc(-c3cccc(C(OC)C(C)(C)C)c3F)c(OC)s2)cc1Cl)C(=O)O` (centres unmarked) [Compound B1909, (Z)-3-(2,6-dichloro-4-{4-[2-fluoro-3-(1-methyloxy-2,2-dimethylpropyl)phenyl]-5-methyloxythiazol-2-ylcarbamoyl}phenyl)-2-methyloxyacrylic acid] reads 25.9 nM; that for `CO/C(=C\c1c(F)cc(C(=O)Nc2nc(-c3cccc(C(CCOC(C)C)OC)c3F)cs2)cc1F)C(=O)O` (centres unmarked) [Compound B2012, (Z)-3-(2,6-difluoro-4-{4-[2-fluoro-3-(3-isopropyloxy-1-methyloxypropyl)phenyl]thiazol-2-ylcarbamoyl}phenyl)-2-methyloxyacrylic acid], 24.2 nM; that for `CCCCOCCc1cccc(-c2csc(NC(=O)c3cc(Cl)c(/C=C(\C)C(=O)O)c(Cl)c3)n2)c1OC` [Compound B1836, (E)-3-(4-{4-[3-(2-butyloxyethyl)-2-methyloxyphenyl]thiazol-2-ylcarbamoyl}-2,6-dichlorophenyl)-2-methylacrylic acid], 21 nM.
